# Literature values, collected in PubChem BioAssay AID1259409 (Chemical Carcinogenesis Research Information System (CCRIS), 2018).
# Test system: rodent chemically induced tumor inhibition, incidence and multiplicity
# Assay: CCRIS tumor inhibitor studies
# Conditions: Route [Inhibitor]: ORAL
smiles,measurement,setting,value
Cc1c(C)c2c(c(C)c1O)CC[C@@](C)(CCC[C@H](C)CCC[C@H](C)CCCC(C)C)O2,"tumour outcome (control, treated, inhibition, significance)","Carcinogen: 1,2-DIMETHYLHYDRAZINE, 540-73-8, Dose [Inhibitor]: 600 MG/KG OF DIET DAILY STARTING AT AGE 10 WK AND CONTINUING FOR DURATION OF STUDY (STUDY DURATION: 28 WK), Species: MOUSE, Strain/Sex: LACA/MALE, Target Tissue: Type of Lesion: COLON: ADENOMA, CARCINOMA, Dose [Carcinogen]: 10 MG/KG BW 1/WK FOR 28 WK, Promoter: NONE USED","34/42 (81%), 31/51 (61%), 25%, p<0.25"
same,"tumour outcome (control, treated, inhibition, significance)","Carcinogen: 2-AMINO-1-METHYL-6-PHENYL-1H-IMIDAZO[4,5-B]PYRID INE, 105650-23-5, Dose [Inhibitor]: 0, 1% IN THE DIET FOR 52 WK (STUDY DURATION: 52 WK), Species: RAT, Strain/Sex: F344/FEMALE, Target Tissue: Type of Lesion: MAMMARY GLAND: ADENOCARCINOMA FIBROADENOMA, Dose [Carcinogen]: 0.02% IN THE DIET FOR 52 WK, Promoter: NONE USED","2/20 (10%), 1/20 (5%), 50%, not significant"
same,"tumour outcome (control, treated, inhibition, significance)","Carcinogen: 2-AMINO-1-METHYL-6-PHENYL-1H-IMIDAZO[4,5-B]PYRID INE, 105650-23-5, Dose [Inhibitor]: 0, 1% IN THE DIET FOR 52 WK (STUDY DURATION: 52 WK), Species: RAT, Strain/Sex: F344/FEMALE, Target Tissue: Type of Lesion: MAMMARY GLAND: ADENOCARCINOMA, Dose [Carcinogen]: 0.02% IN THE DIET FOR 52 WK, Promoter: NONE USED","8/20 (40%), 4/20 (20%), 50%, not significant"
same,"tumour outcome (control, treated, inhibition, significance)","Carcinogen: 2-AMINO-1-METHYL-6-PHENYLIMIDAZO[4,5-B]PYRIDINE [105650-23-5], Dose [Inhibitor]: 0.5% IN DIET FOR 54 WK (STUDY DURATION: 54 WK), Species: RAT, Strain/Sex: F344/DUCRJ/FEMALE, Target Tissue: Type of Lesion: COLON: ADENOMA OR ADENOCARCINOMA, Dose [Carcinogen]: 0.02% IN DIET FOR 54 WK (STUDY DURATION: 54 WK), Promoter: NONE","3/20 (15%), 1/20 (5%), 67%, not significant"
same,"tumour outcome (control, treated, inhibition, significance)","Carcinogen: 2-AMINO-1-METHYL-6-PHENYLIMIDAZO[4,5-B]PYRIDINE [105650-23-5], Dose [Inhibitor]: 0.5% IN DIET FOR 54 WK (STUDY DURATION: 54 WK), Species: RAT, Strain/Sex: F344/DUCRJ/FEMALE, Target Tissue: Type of Lesion: MAMMARY GLAND: ADENOMA OR ADENOCARCINOMA, Dose [Carcinogen]: 0.02% IN DIET FOR 54 WK (STUDY DURATION: 54 WK), Promoter: NONE","8/20 (40%), 4/20 (20%), 50%, not significant"
same,"tumour outcome (control, treated, inhibition, significance)","Carcinogen: 3,2'-DIMETHYL-4-AMINOBIPHENYL, 13394-86-0, Dose [Inhibitor]: 0, 1% IN BASAL DIET BEGINNING POST CARCINOGEN TREATMENT AND CONTINUING FOR 40 WK (STUDY DURATION: 60 WK), Species: RAT, Strain/Sex: F344/MALE, Target Tissue: Type of Lesion: LARGE INTESTINE: ADENOMA AND ADENOCARCINOMA, Dose [Carcinogen]: 50 MG/KG 1/2 WK FOR 20 WK TO RATS MAINTAINED ON ETHINYL ESTRADIOL CONTAINING DIET (0.75 PPM) FOR 1 WK CYCLED WITH ETHINY, Promoter: ETHINYL ESTRADIOL, 57-63-6","3/10 (30%), 4/12 (33%), -10%, not significant"
same,"tumour outcome (control, treated, inhibition, significance)","Carcinogen: 3,2'-DIMETHYL-4-AMINOBIPHENYL, 13394-86-0, Dose [Inhibitor]: 0, 1% IN BASAL DIET BEGINNING POST CARCINOGEN TREATMENT AND CONTINUING FOR 40 WK (STUDY DURATION: 60 WK), Species: RAT, Strain/Sex: F344/MALE, Target Tissue: Type of Lesion: PREPUTIAL GLAND: ADENOMA AND CARCINOMA, Dose [Carcinogen]: 50 MG/KG 1/2 WK FOR 20 WK TO RATS MAINTAINED ON ETHINYL ESTRADIOL CONTAINING DIET (0.75 PPM) FOR 1 WK CYCLED WITH ETHINY, Promoter: ETHINYL ESTRADIOL, 57-63-6","5/10 (50%), 6/12 (50%), 0%, not significant"
same,"tumour outcome (control, treated, inhibition, significance)","Carcinogen: 3,2'-DIMETHYL-4-AMINOBIPHENYL, 13394-86-0, Dose [Inhibitor]: 0, 1% IN BASAL DIET BEGINNING POST CARCINOGEN TREATMENT AND CONTINUING FOR 40 WK (STUDY DURATION: 60 WK), Species: RAT, Strain/Sex: F344/MALE, Target Tissue: Type of Lesion: SMALL INTESTINE: ADENOMA AND ADENOCARCINOMA, Dose [Carcinogen]: 50 MG/KG 1/2 WK FOR 20 WK TO RATS MAINTAINED ON ETHINYL ESTRADIOL CONTAINING DIET (0.75 PPM) FOR 1 WK CYCLED WITH ETHINY, Promoter: ETHINYL ESTRADIOL, 57-63-6","2/10 (20%), 1/12 (8%), 60%, not significant"
same,"tumour outcome (control, treated, inhibition, significance)","Carcinogen: 3,2'-DIMETHYL-4-AMINOBIPHENYL, 13394-86-0, Dose [Inhibitor]: 0, 1% IN BASAL DIET BEGINNING POST CARCINOGEN TREATMENT AND CONTINUING FOR 40 WK (STUDY DURATION: 60 WK), Species: RAT, Strain/Sex: F344/MALE, Target Tissue: Type of Lesion: SUBCUTIS: TUMOR, Dose [Carcinogen]: 50 MG/KG 1/2 WK FOR 20 WK TO RATS MAINTAINED ON ETHINYL ESTRADIOL CONTAINING DIET (0.75 PPM) FOR 1 WK CYCLED WITH ETHINY, Promoter: ETHINYL ESTRADIOL, 57-63-6","1/10 (10%), 0/12 (0%), 100%, not significant"
same,"tumour outcome (control, treated, inhibition, significance)","Carcinogen: 3,2'-DIMETHYL-4-AMINOBIPHENYL, 13394-86-0, Dose [Inhibitor]: 0, 1% IN BASAL DIET BEGINNING POST CARCINOGEN TREATMENT AND CONTINUING FOR 40 WK (STUDY DURATION: 60 WK), Species: RAT, Strain/Sex: F344/MALE, Target Tissue: Type of Lesion: ZYMBAL GLAND: ADENOMA AND CARCINOMA, Dose [Carcinogen]: 50 MG/KG 1/2 WK FOR 20 WK TO RATS MAINTAINED ON ETHINYL ESTRADIOL CONTAINING DIET (0.75 PPM) FOR 1 WK CYCLED WITH ETHINY, Promoter: ETHINYL ESTRADIOL, 57-63-6","2/10 (20%), 1/12 (8%), 60%, not significant"
